Assay results from patent US20200179285A1, “BIODEGRADABLE MICROPARTICLES FOR SUSTAINED DELIVERY OF ANTI-ANGIOGENIC PEPTIDE” (The Johns Hopkins University, priority 2017, published 2020).

Tested on: VEGF-induced vascular leakage
Test: VEGF-induced vascular leakage in rabbit eyes
Format: in vivo
Conditions: single injection, day 60, FIG. 4G

Question: Which “activity against VEGF-induced vascular leakage” value does the source give for aflibercept here?
Answer: no longer showed activity
